≈ marks a conversion by molar mass, not a printed value.
Assays:
[1] = tested on: Plasmodium falciparum; assay: Antimalarial activity against chloroquine-resistant Plasmodium falciparum K1; assay type: functional, organism-based
[2] = tested on: Plasmodium falciparum; assay: Antimalarial activity against chloroquine-sensitive Plasmodium falciparum NF54; assay type: functional, organism-based
[3] = tested on: Plasmodium berghei; assay: Antimalarial activity against Plasmodium berghei infected in NMRI mice (Mus musculus) assessed as reduction in parasitaemia at 100 mg/kg, perorally administered 1 day post-infection measured 3 day post-infection; assay type: functional; design: scale not given: the % may be the effect or the level left; conditions: route oral
[4] = Partition coefficient, log P of the compound; assay type: physicochemical; conditions: octanol/water

C=C(C)[C@@H]1CC[C@@H](C)C2(C1)OOC1(C[C@H](C(=C)C)CC[C@H]1C)OO2 (stereo partly specified)
IC50 [1]: 6.9 ng/mL (≈ 0.0205 µM)
IC50 [2]: 6.6 ng/mL (≈ 0.0196 µM)
Activity [3]: 99.9%

CC(=O)[C@@H]1CC[C@@H](C)C2(C1)OOC1(C[C@H](C(C)=O)CC[C@H]1C)OO2 (stereo partly specified)
IC50 [1]: 2.1 ng/mL (≈ 0.00617 µM)
IC50 [2]: 2.1 ng/mL (≈ 0.00617 µM)
Activity [3]: 63%

CC(N)[C@@H]1CC[C@@H](C)C2(C1)OOC1(C[C@H](C(C)N)CC[C@H]1C)OO2 (stereo partly specified)
IC50 [1]: 54 ng/mL (≈ 0.158 µM)
IC50 [2]: 82 ng/mL (≈ 0.239 µM)
Activity [3]: 99.1%

C/C(=N\O)[C@@H]1CC[C@@H](C)C2(C1)OOC1(C[C@H](/C(C)=N/O)CC[C@H]1C)OO2 (stereo partly specified)
IC50 [1]: 30 ng/mL (≈ 0.081 µM)
IC50 [2]: 18 ng/mL (≈ 0.0486 µM)
Activity [3]: <40%

C[C@@H]1CC[C@H]2[C@@H](C)C(=O)O[C@@H]3O[C@@]4(C)CC[C@@H]1[C@]32OO4 [ARTEMISININ]
IC50 [2]: 3.4 ng/mL (≈ 0.012 µM)
logP [4]: 2.2
Activity [3]: 98%

C[C@@H]1CCCCC12OOC1(CCCC[C@@H]1C)OO2 (stereo partly specified) [WR-148999]
Activity [3]: 99.7%

— ChEMBL document CHEMBL1268995, “The structure and antimalarial activity of dispiro-1,2,4,5-tetraoxanes derived from (+)-dihydrocarvone” (Bioorg Med Chem Lett, 2010)
